This is an account of results in US12084436B2, “Heterocyclic compound” (Takeda Pharmaceutical Company Limited, priority 2019, dated 2024).

In the test the target is T1, HDAC6 enzyme (Homo sapiens, UniProt Q9UBN7).
T1 construct: prepared by transducing full length HDAC6 gene into Sf-9 insect cells; GST; purchased SignalChem; host or cells: Sf-9 insect cells
T1 sequence (Q9UBN7 1-1215): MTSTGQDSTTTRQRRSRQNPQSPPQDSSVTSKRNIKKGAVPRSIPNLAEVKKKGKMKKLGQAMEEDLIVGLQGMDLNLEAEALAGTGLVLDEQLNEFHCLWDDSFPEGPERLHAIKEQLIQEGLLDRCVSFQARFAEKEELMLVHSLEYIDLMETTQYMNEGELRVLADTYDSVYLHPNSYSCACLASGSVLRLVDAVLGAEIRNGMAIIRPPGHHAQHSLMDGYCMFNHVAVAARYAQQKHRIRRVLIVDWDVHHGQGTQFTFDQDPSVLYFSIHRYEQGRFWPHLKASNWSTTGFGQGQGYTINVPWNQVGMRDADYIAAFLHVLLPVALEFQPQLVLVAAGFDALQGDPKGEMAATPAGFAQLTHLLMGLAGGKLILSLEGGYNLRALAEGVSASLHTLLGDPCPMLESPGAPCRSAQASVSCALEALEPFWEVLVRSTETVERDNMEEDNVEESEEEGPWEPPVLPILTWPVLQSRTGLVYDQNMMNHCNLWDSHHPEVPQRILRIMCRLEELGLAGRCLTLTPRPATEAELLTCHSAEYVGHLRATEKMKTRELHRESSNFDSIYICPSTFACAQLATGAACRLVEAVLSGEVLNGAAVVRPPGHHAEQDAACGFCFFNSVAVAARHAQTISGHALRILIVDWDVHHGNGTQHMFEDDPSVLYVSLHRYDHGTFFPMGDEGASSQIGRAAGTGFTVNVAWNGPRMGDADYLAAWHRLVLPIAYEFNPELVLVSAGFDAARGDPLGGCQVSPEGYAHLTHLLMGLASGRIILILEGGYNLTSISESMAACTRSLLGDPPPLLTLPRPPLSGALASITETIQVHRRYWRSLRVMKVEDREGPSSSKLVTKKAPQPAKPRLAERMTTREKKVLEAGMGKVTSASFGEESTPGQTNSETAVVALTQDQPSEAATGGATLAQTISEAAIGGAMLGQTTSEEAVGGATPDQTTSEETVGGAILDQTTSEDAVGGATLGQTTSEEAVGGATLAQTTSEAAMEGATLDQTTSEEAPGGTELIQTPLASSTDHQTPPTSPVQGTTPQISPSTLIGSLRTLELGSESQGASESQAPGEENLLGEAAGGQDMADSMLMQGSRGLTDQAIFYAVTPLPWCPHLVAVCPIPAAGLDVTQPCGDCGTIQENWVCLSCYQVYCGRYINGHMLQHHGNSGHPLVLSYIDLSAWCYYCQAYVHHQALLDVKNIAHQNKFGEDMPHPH
As to the kind of experiment: HDAC6 enzyme inhibitory assay (HDAC-Glo I/II Assay kit, luminescence). Format: biochemical. The following applies: 10 μM test compound, wells without enzyme = 100% inhibition; for inhibition at 10 µM: read-out: HDAC6 inhibitory rate (%) (10 μM). The procedure, abridged: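 Full-length human HDAC6, GST-purified from Sf-9 cells, was preincubated with compound for 60 min at room temperature in Tris-HCl pH 7.5 buffer with glutathione and Tween-20. Substrate-developer was then added, and luminescence was read after 20 min at room temperature. Inhibition was expressed relative to no-enzyme wells, taken as 100% inhibition.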

On to `Cc1ccccc1Cn1ccnc1-c1cc(-c2nnc(C(F)F)o2)ccn1` [Example 86a, 4-[5-(difluoromethyl)-1,3,4-oxadiazol-2-yl]-2-{1-[(2-methylphenyl)methyl]-1H-imidazol-2-yl}pyridine], for which the inhibition at 10 µM amounted to 100%.
`N#Cc1cc(Cn2ccnc2-c2cc(-c3nnc(C(F)F)o3)ccn2)ccc1F` [Example 1a, 5-[(2-{4-[5-(difluoromethyl)-1,3,4-oxadiazol-2-yl]pyridin-2-yl}-1H-imidazol-1-yl)methyl]-2-fluorobenzonitrile]: the inhibition at 10 µM was found to be 100%.
For the molecule `CN1C(=O)c2cc(-c3nnc(C(F)F)o3)cnc2CC1(C)c1ccc(F)cc1` (single isomer, unassigned; isomer 1) [Example 27b, 3-[5-(difluoromethyl)-1,3,4-oxadiazol-2-yl]-7-(4-fluorophenyl)-6,7-dimethyl-7,8-dihydro-1,6-naphthyridin-5(6H)-one (optical isomer 1)], the “HDAC6 inhibitory rate (%) (10 μM)” value was determined as 56%.
`CN(Cc1cccc2cnccc12)N1Cc2ccc(-c3nnc(C(F)F)o3)cc2C1=O` [Example 47c, 6-[5-(difluoromethyl)-1,3,4-oxadiazol-2-yl]-2-{[(isoquinolin-5-yl)methyl](methyl)amino}-2,3-dihydro-1H-isoindol-1-one]: the inhibition at 10 µM came out at 100%.
Regarding `CN(Cc1ccccc1C(F)F)N1Cc2ccc(-c3nnc(C(F)F)o3)cc2C1=O` [Example 65c, 6-[5-(difluoromethyl)-1,3,4-oxadiazol-2-yl]-2-[{[2-(difluoromethyl)phenyl]methyl} (methyl)amino]-2,3-dihydro-1H-isoindol-1-one], the inhibition at 10 µM worked out at 101%.
The same measure, in the same setting: to `CN(C)c1ccc(CN(C)N2Cc3ccc(-c4nnc(C(F)F)o4)cc3C2=O)cc1` [Example 54c, 6-[5-(difluoromethyl)-1,3,4-oxadiazol-2-yl]-2-[{[4-(dimethylamino)phenyl]methyl} (methyl)amino]-2,3-dihydro-1H-isoindol-1-one] belongs 97%; to `O=C(OC1CCOCC1)N(Cc1ccc(F)cc1)N1Cc2ccc(-c3nnc(C(F)F)o3)cc2C1=O` [Example 23c, oxan-4-yl {6-[5-(difluoromethyl)-1,3,4-oxadiazol-2-yl]-1-oxo-1,3-dihydro-2H-isoindol-2-yl}[(4-fluorophenyl)methyl]carbamate], 101%; to `CN1C(=O)c2cc(-c3nnc(C(F)F)o3)ccc2OC1(C)c1ccc(Cl)cc1` (stereo not shown) [Example 26b, 2-(4-chlorophenyl)-6-[5-(difluoromethyl)-1,3,4-oxadiazol-2-yl]-2,3-dimethyl-2,3-dihydro-4H-1,3-benzoxazin-4-one], 100%.
Still for that read-out and setting: the same measure for `Fc1cc(-c2nnc(C(F)F)o2)cc(-c2nccn2Cc2cscn2)c1` [Example 60a, 2-(difluoromethyl)-5-(3-fluoro-5-{1-[(1,3-thiazol-4-yl)methyl]-1H-imidazol-2-yl}phenyl)-1,3,4-oxadiazole]: 98%.
Same read-out and setting: to `O=C1NN(C2CCCCC2)Cc2ccc(-c3nnc(C(F)F)o3)cc21` [Example 11b, 3-cyclohexyl-7-[5-(difluoromethyl)-1,3,4-oxadiazol-2-yl]-3,4-dihydrophthalazin-1(2H)-one] belongs 99%.
With `FC(F)c1nnc(-c2cccc(-c3nccn3Cc3ccccc3)c2)o1` [Example 70a, 2-[3-(1-benzyl-1H-imidazol-2-yl)phenyl]-5-(difluoromethyl)-1,3,4-oxadiazole], the inhibition at 10 µM worked out at 98%.
As for `Fc1cc(-c2nnc(C(F)F)o2)cc(-c2nccn2Cc2cncnc2)c1` [Example 25a, 5-[(2-{3-[5-(difluoromethyl)-1,3,4-oxadiazol-2-yl]-5-fluorophenyl}-1H-imidazol-1-yl)methyl]pyrimidine], the inhibition at 10 µM stood at 98%.
Regarding `CN1C(=O)c2cc(-c3nnc(C(F)F)o3)ccc2OC1(C)c1ccc(C#N)cc1` (single isomer, unassigned; isomer 2) [Example 37b, 4-{6-[5-(difluoromethyl)-1,3,4-oxadiazol-2-yl]-2,3-dimethyl-4-oxo-3,4-dihydro-2H-1,3-benzoxazin-2-yl}benzonitrile (optical isomer 2)], the “HDAC6 inhibitory rate (%) (10 μM)” value is reported as 100%.
In the case of `Cc1noc(Cn2ccnc2-c2cc(F)cc(-c3nnc(C(F)F)o3)c2)n1` [Example 56a, 5-[(2-{3-[5-(difluoromethyl)-1,3,4-oxadiazol-2-yl]-5-fluorophenyl}-1H-imidazol-1-yl)methyl]-3-methyl-1,2,4-oxadiazole], the inhibition at 10 µM was determined as 99%.
Consider `Fc1cc(-c2nnc(C(F)F)o2)cc(-c2nccn2Cc2ccc(F)c(F)c2)c1` [Example 45a, 2-(difluoromethyl)-5-(3-{1-[(3,4-difluorophenyl)methyl]-1H-imidazol-2-yl}-5-fluorophenyl)-1,3,4-oxadiazole], for which the inhibition at 10 µM worked out at 100%.
For the molecule `FC(F)c1nnc(-c2cccc(-n3nccc3C3CC3)c2)o1` [Example 2a, 2-[3-(5-cyclopropyl-1H-pyrazol-1-yl)phenyl]-5-(difluoromethyl)-1,3,4 oxadiazole], the inhibition at 10 µM was determined as 104%.
The same measure, in the same setting: to `N#Cc1ccc(Cn2ccnc2-c2cc(-c3nnc(C(F)F)o3)ccn2)cc1F` [Example 75a, 4-[(2-{4-[5-(difluoromethyl)-1,3,4-oxadiazol-2-yl]pyridin-2-yl}-1H-imidazol-1-yl)methyl]-2-fluorobenzonitrile] belongs 99%; to `CN(CC1CC(F)(F)C1)N1Cc2ccc(-c3nnc(C(F)F)o3)cc2C1=O` [Example 64c, 2-{[(3,3-difluorocyclobutyl)methyl] (methyl)amino}-6-[5-(difluoromethyl)-1,3,4-oxadiazol-2-yl]-2,3-dihydro-1H-isoindol-1-one], 99%.
On the same count and under the same terms, the same measure for `O=C(CC(F)(F)F)N(Cc1ccc(F)cc1)N1Cc2ccc(-c3nnc(C(F)F)o3)cc2C1=O` [Example 14c, N-{6-[5-(difluoromethyl)-1,3,4-oxadiazol-2-yl]-1-oxo-1,3-dihydro-2H-isoindol-2-yl}-3,3,3-trifluoro-N-[(4-fluorophenyl)methyl]propanamide]: 100%; for `O=C1NN(c2ccc(F)c(F)c2)Cc2ccc(-c3nnc(C(F)F)o3)cc21` [Example 30b, 7-[5-(difluoromethyl)-1,3,4-oxadiazol-2-yl]-3-(3,4-difluorophenyl)-3,4-dihydrophthalazin-1(2H)-one]: 100%.
On the same count and under the same terms, to `COCCN1C(=O)c2cc(-c3nnc(C(F)F)o3)ccc2OC1(C)c1ccc(F)cc1` (stereo not shown) [Example 52b, 6-[5-(difluoromethyl)-1,3,4-oxadiazol-2-yl]-2-(4-fluorophenyl)-3-(2-methoxyethyl)-2-methyl-2,3-dihydro-4H-1,3-benzoxazin-4-one] belongs 100%; to `CCOC(=O)C(C)CN(C)N1Cc2ccc(-c3nnc(C(F)F)o3)cc2C1=O` (stereo not shown) [Example 43c, ethyl 3-[{6-[5-(difluoromethyl)-1,3,4-oxadiazol-2-yl]-1-oxo-1,3-dihydro-2H-isoindol-2-yl}(methyl)amino]-2-methylpropanoate], 94%; to `Cn1ccc(OC2CCOCC2)c(-c2cc(-c3nnc(C(F)F)o3)ccn2)c1=O` [Example 91a, 4-[5-(difluoromethyl)-1,3,4-oxadiazol-2-yl]-1′-methyl-4′-[(oxan-4-yl)oxy][2,3′-bipyridine]-2′(1′H)-one], 100%.
As to `COc1cncc(Cn2ccnc2-c2cc(F)cc(-c3nnc(C(F)F)o3)c2)n1` [Example 58a, 2-[(2-{3-[5-(difluoromethyl)-1,3,4-oxadiazol-2-yl]-5-fluorophenyl}-1H-imidazol-1-yl)methyl]-6-methoxypyrazine], the inhibition at 10 µM was determined as 98%.
Same read-out and setting: to `O=C(OC1CCOC1)N(Cc1ccc(F)cc1)N1Cc2ccc(-c3nnc(C(F)F)o3)cc2C1=O` (stereo not shown) [Example 26c, oxolan-3-yl {6-[5-(difluoromethyl)-1,3,4-oxadiazol-2-yl]-1-oxo-1,3-dihydro-2H-isoindol-2-yl}[(4-fluorophenyl)methyl]carbamate] belongs 99%.
